# Experimental data: US20080039438A1, “1B-Methylcarbapenem Derivative and Process for the Preparation Thereof” (Korea Institute of Science and Technology, priority 2004, published 2008)
# Assays:
# Type in all cases: cell-based
# Acinetobacter baumannii = assay: MIC against clinically isolated aerobic Gram-negative strains; details: 30 strains
# Citrobacter freundii = assay: as above; details: 14 strains
# Providentia sp. = assay: as above; details: 13 strains
# Haemophilus influenzae = assay: as above; details: 24 strains
# Enterobacter cloacae = assay: as above; details: 29 strains
# Proteus vulgaris = assay: as above; details: 15 strains
# Moraxella catarrhalis = assay: as above; details: 24 strains
# Pseudomonas aeruginosa = assay: as above; details: 60 strains
# Serratia marcescens = assay: as above; details: 14 strains
# Clostridium perfringens = assay: microbe, parasite or virus in culture
# Klebsiella oxytoca = assay: MIC against clinically isolated aerobic Gram-negative strains; details: 15 strains
# Enterobacter aerogenes = assay: as above; details: 14 strains
# Staphylococcus coagulase = assay: MIC against clinically isolated aerobic Gram-positive strains; details: Staphylococcus
# [1] = test system: Methicillin-sensitive Staphylococcus aureus; assay: as above; details: 33 strains
# Streptococcus pneumoniae = assay: as above; details: 22 strains
# Clostridium difficile = assay: MIC against clinically isolated anaerobic Gram-positive strains; details: 15 strains
# Description: The in vitro antibacterial activities of the sodium 3-carboxylate compound of the present invention prepared in the above Example were measured against standard strains (Table 1), clinically isolated aerobic Gram-positive strains (Table 2), clinically isolated aerobic Gram-negative strains (Table 3), clinically isolated anaerobic Gram-positive strains (Table 4) and clinically isolated anaerobic Gram-negative strains (Table 5) using Gram-positive bacteria such as Streptococcus and Staphylococcus, Gram-negative bacteria such as Escherichia, Salmonella, Krebsiella and Enterobacter. Imipenem (IPM), meropenem (MPM) and ertapenem (EPM) were used as control groups.
# The results are shown in Tables 1 to 5, and MIC50 and MIC90 represent the concentrations at which the test strain's growth was inhibited to the extents of 50% and 90%, respectively.
# Morganella morganii = assay: MIC against clinically isolated aerobic Gram-negative strains; details: 15 strains
# Klebsiella pneumoniae = assay: as above; details: 30 strains
# Bacteroides spp. = assay: MIC against clinically isolated anaerobic Gram-negative strains; details: 11 strains
# Streptococcus pyogenes = assay: MIC against clinically isolated aerobic Gram-positive strains; details: 15 strains
# Enterococcus faecalis = assay: as above; details: 30 strains
# Bacteroides fragilis = assay: MIC against clinically isolated anaerobic Gram-negative strains; details: 34 strains
# Escherichia coli = assay: MIC against clinically isolated aerobic Gram-negative strains; details: 30 strains
# Proteus mirabilis = assay: as above; details: 15 strains
# [2] = test system: Bacteroides thetaiotaomicron; assay: MIC against clinically isolated anaerobic Gram-negative strains
# Streptococcus agalactiae = assay: MIC against clinically isolated aerobic Gram-positive strains; details: 15 strains
# Peptostreptococcus spp. = assay: MIC against clinically isolated anaerobic Gram-positive strains; details: 27 strains
# Enterococcus faecium = assay: MIC against clinically isolated aerobic Gram-positive strains; details: clinically isolated Enterococcus faecium, 29 strains
compound,measurement,setting,value
"C[C@@H](O)[C@H]1C(=O)N2C(C(=O)O)=C(S[C@@H]3CN[C@H](C(=O)Nc4cccc(C(=O)O)c4)C3)[C@H](C)[C@H]12 [EPM, ertapenem]",MIC50,Acinetobacter baumannii,8 µg/mL
same,MIC90,Acinetobacter baumannii,64 µg/mL
same,MIC Range,Acinetobacter baumannii,4 to 128 µg/mL
same,MIC50,Citrobacter freundii,0.008 µg/mL
same,MIC90,Citrobacter freundii,0.25 µg/mL
same,MIC Range,Citrobacter freundii,0.008 to 0.5 µg/mL
same,MIC50,Providentia sp.,0.03 µg/mL
same,MIC90,Providentia sp.,16 µg/mL
same,MIC Range,Providentia sp.,0.008 to 16 µg/mL
same,MIC50,Haemophilus influenzae,0.12 µg/mL
same,MIC90,Haemophilus influenzae,0.5 µg/mL
same,MIC Range,Haemophilus influenzae,0.12 to 1 µg/mL
same,MIC50,Enterobacter cloacae,0.12 µg/mL
same,MIC90,Enterobacter cloacae,2 µg/mL
same,MIC Range,Enterobacter cloacae,0.015 to 2 µg/mL
same,MIC50,Proteus vulgaris,0.015 µg/mL
same,MIC90,Proteus vulgaris,0.015 µg/mL
same,MIC Range,Proteus vulgaris,0.008 to 0.03 µg/mL
same,MIC50,Moraxella catarrhalis,0.015 µg/mL
same,MIC90,Moraxella catarrhalis,0.03 µg/mL
same,MIC Range,Moraxella catarrhalis,0.008 to 0.12 µg/mL
same,MIC50,Pseudomonas aeruginosa,32 µg/mL
same,MIC90,Pseudomonas aeruginosa,128 µg/mL
same,MIC Range,Pseudomonas aeruginosa,1 to 128 µg/mL
same,MIC50,Serratia marcescens,0.06 µg/mL
same,MIC90,Serratia marcescens,16 µg/mL
same,MIC Range,Serratia marcescens,0.015 to 16 µg/mL
same,MIC50,Clostridium perfringens; Clostridium perfringens,0.06 µg/mL
same,MIC90,Clostridium perfringens; Clostridium perfringens,0.12 µg/mL
same,MIC Range,"Clostridium perfringens; clinically isolated anaerobic Clostridium perfringens, 13 strains",0.06 to 0.12 µg/mL
same,MIC50,Klebsiella oxytoca,0.008 µg/mL
same,MIC90,Klebsiella oxytoca,0.008 µg/mL
same,MIC Range,Klebsiella oxytoca,0.008 to 0.25 µg/mL
same,MIC Range,Enterobacter aerogenes,0.008 to 0.5 µg/mL
same,MIC50,Enterobacter aerogenes; Klebsiella aerogenes,0.06 µg/mL
same,MIC90,Enterobacter aerogenes; Klebsiella aerogenes,0.5 µg/mL
same,MIC50,Staphylococcus coagulase,0.25 µg/mL
same,MIC90,Staphylococcus coagulase,0.5 µg/mL
same,MIC50,[1],0.25 µg/mL
same,MIC90,[1],0.25 µg/mL
same,MIC Range,[1],0.25 to 0.5 µg/mL
same,MIC50,Streptococcus pneumoniae,0.5 µg/mL
same,MIC90,Streptococcus pneumoniae,1 µg/mL
same,MIC Range,Streptococcus pneumoniae,0.008 to 1 µg/mL
same,MIC Range,Clostridium difficile,4 to 8 µg/mL
same,MIC50,Clostridium difficile; Clostridioides difficile,4 µg/mL
same,MIC90,Clostridium difficile; Clostridioides difficile,8 µg/mL
same,MIC50,Morganella morganii,0.008 µg/mL
same,MIC90,Morganella morganii,0.03 µg/mL
same,MIC Range,Morganella morganii,0.008 to 0.03 µg/mL
same,MIC50,Klebsiella pneumoniae,0.03 µg/mL
same,MIC90,Klebsiella pneumoniae,0.5 µg/mL
same,MIC Range,Klebsiella pneumoniae,0.008 to 1 µg/mL
same,MIC50,Bacteroides spp.,1 µg/mL
same,MIC90,Bacteroides spp.,2 µg/mL
same,MIC Range,Bacteroides spp.,0.5 to 2 µg/mL
same,MIC50,Streptococcus pyogenes,0.15 µg/mL
same,MIC90,Streptococcus pyogenes,0.15 µg/mL
same,MIC Range,Streptococcus pyogenes,0.008 to 0.015 µg/mL
same,MIC50,Enterococcus faecalis,16 µg/mL
same,MIC90,Enterococcus faecalis,32 µg/mL
same,MIC Range,Enterococcus faecalis,4 to 64 µg/mL
same,MIC50,Bacteroides fragilis,0.25 µg/mL
same,MIC90,Bacteroides fragilis,1 µg/mL
same,MIC Range,Bacteroides fragilis,0.12 to 4 µg/mL
same,MIC50,Escherichia coli,0.008 µg/mL
same,MIC90,Escherichia coli,0.12 µg/mL
same,MIC Range,Escherichia coli,0.008 to 4 µg/mL
same,MIC50,Proteus mirabilis,0.008 µg/mL
same,MIC90,Proteus mirabilis,0.015 µg/mL
same,MIC Range,Proteus mirabilis,0.008 to 0.015 µg/mL
same,MIC50,[2]; Bacteroides thetaiotaomicron,2 µg/mL
same,MIC90,[2]; Bacteroides thetaiotaomicron,2 µg/mL
same,MIC Range,"[2]; clinically isolated anaerobic Bacteroides thetaiotaomicron, 15 strains",0.25 to 8 µg/mL
same,MIC50,Streptococcus agalactiae,0.06 µg/mL
same,MIC90,Streptococcus agalactiae,0.06 µg/mL
same,MIC Range,Streptococcus agalactiae,0.03 to 0.06 µg/mL
same,MIC50,Peptostreptococcus spp.,0.12 µg/mL
same,MIC90,Peptostreptococcus spp.,4 µg/mL
same,MIC Range,Peptostreptococcus spp.,0.06 to 4 µg/mL
same,MIC Range,Enterococcus faecium,32 to 128 µg/mL
same,MIC50,Enterococcus faecium; read-out: MIC50,128 µg/mL
same,MIC90,Enterococcus faecium; read-out: MIC90,128 µg/mL
